pIC50: −log10 of the molar value. Bridge positions count the residues as written; N and C are the ends. Peptide text beside a SMILES is read from it.
Key:
[1] = biological target: T1, integrin αvβ6 (Homo sapiens, UniProt P06756+P18564); assay: AlphaLISA competition assay vs LAP, biotinylated αvβ6; type: binding
[2] = biological target: T2, integrin αvβ3 (Homo sapiens, UniProt P05106+P06756); assay: AlphaLISA competition assay vs LAP, biotinylated αvβ3; type: binding
[3] = biological target: T3, integrin αvβ8 (Homo sapiens, UniProt P06756+P26012); assay: AlphaLISA competition assay vs LAP, biotinylated αvβ8; type: binding
[4] = biological target: T3, integrin αvβ8; assay: ELISA competition assay, integrin αvβ8 binding to LAP
[5] = biological target: T2, integrin αvβ3; assay: ELISA competition assay, integrin αvβ3; type: binding
[6] = biological target: T1, integrin αvβ6; assay: ELISA competition assay, integrin αvβ6 binding to LAP
[7] = αvβ6 IC50, ELISA competition vs LAP, mean, n ≥ 3

Row | Structure (SMILES) | pIC50 [1] | pIC50 [2] | pIC50 [3] | pIC50 [4] | pIC50 [5] | pIC50 [6, 7] | pIC50 [6]
1 | CC[C@H](C)[C@H](NC(=O)CNC(=O)[C@@H](NC(=O)[C@H](Cc1ccccc1)NC(=O)[C@H](Cc1ccc(O)cc1)NC(=O)[C@@H]1CCC(=O)NCC(=O)NCC(=O)N[C@@H](C)C(=O)NCC(=O)N[C@@H](Cc2cnc[nH]2)C(=O)N[C@@H](C(C)C)C(=O)N2CCC[C@H]2C(=O)N1)C(C)C)C(=O)NCC(=O)N[C@H](C(=O)N1CCC[C@H]1C(=O)N[C@H](C(=O)N[C@@H](CO)C(=O)N[C@@H](Cc1ccccc1)C(=O)N[C@@H](Cc1ccc(O)cc1)C(=O)NCC(=O)O)[C@@H](C)CC)[C@@H](C)O [lassotide 1, MccJ25, reference compound] (GGAGHVPEYFVGIGTPISFYG-OH; lactam N-8) | < 5.00 | < 5.00 | < 5.00 | – | – | – | –
2 | CC[C@H](C)[C@H](NC(=O)[C@@H]1CCCN1C(=O)[C@H](CC(C)C)NC(=O)[C@H](CC(=O)O)NC(=O)CNC(=O)[C@H](CCCNC(=N)N)NC(=O)[C@@H](NC(=O)[C@H](Cc1ccccc1)NC(=O)[C@H](Cc1ccc(O)cc1)NC(=O)[C@@H]1CCC(=O)NCC(=O)NCC(=O)N[C@@H](C)C(=O)NCC(=O)N[C@@H](Cc2c[nH]cn2)C(=O)N[C@@H](C(C)C)C(=O)N2CCC[C@H]2C(=O)N1)C(C)C)C(=O)N[C@@H](CO)C(=O)N[C@@H](Cc1ccccc1)C(=O)N[C@@H](Cc1ccc(O)cc1)C(=O)NCC(=O)O [lassotide 2] (GGAGHVPEYFVRGDLPISFYG-OH; lactam N-8; C-terminus assumed) | 6.58 | 9.00 | – | – | – | – | –
3 | CC[C@H](C)[C@H](NC(=O)[C@@H]1CCCN1C(=O)[C@H](Cc1ccccc1)NC(=O)[C@H](CC(=O)O)NC(=O)CNC(=O)[C@H](CCCNC(=N)N)NC(=O)[C@@H](NC(=O)[C@H](Cc1ccccc1)NC(=O)[C@H](Cc1ccc(O)cc1)NC(=O)[C@@H]1CCC(=O)NCC(=O)NCC(=O)N[C@@H](C)C(=O)NCC(=O)N[C@@H](Cc2c[nH]cn2)C(=O)N[C@@H](C(C)C)C(=O)N2CCC[C@H]2C(=O)N1)C(C)C)C(=O)N[C@@H](CO)C(=O)N[C@@H](Cc1ccccc1)C(=O)N[C@@H](Cc1ccc(O)cc1)C(=O)NCC(=O)O [lassotide 3] (GGAGHVPEYFVRGDFPISFYG-OH; lactam N-8; C-terminus assumed) | 6.60 | 9.00 | 6.53 | – | – | – | –
4 | CC[C@H](C)[C@H](NC(=O)[C@@H]1CCCN1C(=O)[C@@H](NC(=O)[C@H](CC(C)C)NC(=O)[C@H](CC(=O)O)NC(=O)CNC(=O)[C@H](CCCNC(=N)N)NC(=O)[C@H](Cc1ccccc1)NC(=O)[C@H](Cc1ccc(O)cc1)NC(=O)[C@@H]1CCC(=O)NCC(=O)NCC(=O)N[C@@H](C)C(=O)NCC(=O)N[C@@H](Cc2c[nH]cn2)C(=O)N[C@@H](C(C)C)C(=O)N2CCC[C@H]2C(=O)N1)[C@@H](C)O)C(=O)N[C@@H](CO)C(=O)N[C@@H](Cc1ccccc1)C(=O)N[C@@H](Cc1ccc(O)cc1)C(=O)NCC(=O)O [lassotide 7] (GGAGHVPEYFRGDLTPISFYG-OH; lactam N-8; C-terminus assumed) | 5.69 | 6.24 | 6.31 | – | – | – | –
5 | CC[C@H](C)[C@H](NC(=O)[C@@H]1CCCN1C(=O)[C@H](CC(C)C)NC(=O)[C@H](CC(=O)O)NC(=O)CNC(=O)[C@H](CCCNC(=N)N)NC(=O)[C@@H](NC(=O)[C@H](Cc1ccc(O)cc1)NC(=O)[C@@H]1CCC(=O)NCC(=O)NCC(=O)N[C@@H](C)C(=O)NCC(=O)N[C@@H](Cc2c[nH]cn2)C(=O)N[C@@H](C(C)C)C(=O)N2CCC[C@H]2C(=O)N1)C(C)C)C(=O)N[C@@H](CO)C(=O)N[C@@H](Cc1ccccc1)C(=O)N[C@@H](Cc1ccc(O)cc1)C(=O)NCC(=O)O [lassotide 12] (GGAGHVPEYVRGDLPISFYG-OH; lactam N-8; C-terminus assumed) | – | – | – | 6.32 | 9.00 | 6.75 | –
6 | CC[C@H](C)[C@H](NC(=O)[C@@H]1CCCN1C(=O)[C@H](CC(C)C)NC(=O)[C@H](CC(=O)O)NC(=O)CNC(=O)[C@H](CCCNC(=N)N)NC(=O)[C@H](Cc1ccccc1)NC(=O)[C@H](Cc1ccc(O)cc1)NC(=O)[C@@H]1CCC(=O)NCC(=O)NCC(=O)N[C@@H](C)C(=O)NCC(=O)N[C@@H](Cc2c[nH]cn2)C(=O)N[C@@H](C(C)C)C(=O)N2CCC[C@H]2C(=O)N1)C(=O)N[C@@H](CO)C(=O)N[C@@H](Cc1ccccc1)C(=O)N[C@@H](Cc1ccc(O)cc1)C(=O)NCC(=O)O [lassotide 13] (GGAGHVPEYFRGDLPISFYG-OH; lactam N-8; C-terminus assumed) | – | – | – | 6.66 | 7.70 | 6.20 | –
7 | CC[C@H](C)[C@@H]1NC(=O)[C@H]([C@@H](C)CC)NC(=O)[C@@H]2CCCN2C(=O)CNC(=O)[C@H](CC(=O)O)NC(=O)[C@H](CO)NC(=O)CNC(=O)CC[C@@H](C(=O)N[C@@H](Cc2ccccc2)C(=O)N[C@@H](Cc2ccccc2)C(=O)N[C@@H](CC(N)=O)C(=O)N2CCC[C@H]2C(=O)N[C@@H](CC(N)=O)C(=O)NCC(=O)N[C@H](C(=O)N[C@@H](CCSC)C(=O)N[C@@H](Cc2c[nH]cn2)C(=O)N[C@@H](Cc2ccc(O)cc2)C(=O)NCC(=O)O)C(C)C)NC1=O [lassotide 15, klebsidin, reference compound] (GSDGPIIEFFNPNGVMHYG-OH; lactam N-8; C-terminus assumed) | – | – | – | < 5.00 | < 5.00 | – | < 5.00
8 | CC[C@H](C)[C@@H]1NC(=O)[C@H]([C@@H](C)CC)NC(=O)[C@@H]2CCCN2C(=O)CNC(=O)[C@H](CC(=O)O)NC(=O)[C@H](CO)NC(=O)CNC(=O)CC[C@@H](C(=O)N[C@@H](Cc2ccccc2)C(=O)N[C@@H](CCCNC(=N)N)C(=O)NCC(=O)N[C@@H](CC(=O)O)C(=O)N[C@@H](CC(C)C)C(=O)NCC(=O)N[C@H](C(=O)N[C@@H](CCSC)C(=O)N[C@@H](Cc2c[nH]cn2)C(=O)N[C@@H](Cc2ccc(O)cc2)C(=O)NCC(=O)O)C(C)C)NC1=O [lassotide 16] (GSDGPIIEFRGDLGVMHYG-OH; lactam N-8; C-terminus assumed) | – | – | – | 6.67 | 5.98 | 7.52 | –
9 | CC[C@H](C)[C@@H]1NC(=O)[C@H](CO)NC(=O)CC[C@@H](C(=O)N[C@@H](CO)C(=O)N[C@@H](CCSC)C(=O)N[C@@H](CO)C(=O)N[C@@H](CO)C(=O)N[C@@H](CCC(N)=O)C(=O)N[C@H](C(=O)N[C@@H](Cc2ccc(O)cc2)C(=O)N[C@@H](Cc2c[nH]c3ccccc23)C(=O)N2CCC[C@H]2C(=O)O)[C@@H](C)O)NC(=O)[C@H](CCCNC(=N)N)NC(=O)[C@H](CC(C)C)NC(=O)CNC(=O)[C@H](CO)NC(=O)[C@H](CC(=O)O)NC(=O)CNC1=O [lassotide 17, caulonodin V, reference compound] (SIGDSGLRESMSSQTYWP-OH; lactam N-9; C-terminus assumed) | – | – | – | < 5.00 | < 5.00 | < 5.00 | –
10 | CC(C)C[C@H](NC(=O)[C@H](CC(=O)O)NC(=O)CNC(=O)[C@H](CCCNC(=N)N)NC(=O)[C@@H](NC(=O)[C@H](Cc1ccccc1)NC(=O)[C@H](Cc1ccc(O)cc1)NC(=O)[C@@H]1CCC(=O)NCC(=O)NCC(=O)N[C@@H](C)C(=O)NCC(=O)N[C@@H](Cc2c[nH]cn2)C(=O)N[C@@H](C(C)C)C(=O)N2CCC[C@H]2C(=O)N1)C(C)C)C(=O)N[C@@H](Cc1ccc(O)cc1)C(=O)N[C@@H](CO)C(=O)N[C@@H](Cc1ccccc1)C(=O)N[C@@H](Cc1ccc(O)cc1)C(=O)NCC(=O)O [lassotide 25] (GGAGHVPEYFVRGDLYSFYG-OH; lactam N-8; C-terminus assumed) | 6.53 | – | 6.69 | – | – | – | –
11 | CC(C)C[C@H](NC(=O)[C@H](CC(=O)O)NC(=O)CNC(=O)[C@H](CCCNC(=N)N)NC(=O)[C@@H](NC(=O)[C@H](Cc1ccccc1)NC(=O)[C@H](Cc1ccc(O)cc1)NC(=O)[C@@H]1CCC(=O)NCC(=O)NCC(=O)N[C@@H](C)C(=O)NCC(=O)N[C@@H](Cc2c[nH]cn2)C(=O)N[C@@H](C(C)C)C(=O)N2CCC[C@H]2C(=O)N1)C(C)C)C(=O)N[C@@H](Cc1c[nH]c2ccccc12)C(=O)N[C@@H](CO)C(=O)N[C@@H](Cc1ccccc1)C(=O)N[C@@H](Cc1ccc(O)cc1)C(=O)NCC(=O)O [lassotide 26] (GGAGHVPEYFVRGDLWSFYG-OH; lactam N-8; C-terminus assumed) | 7.62 | – | 7.07 | – | – | – | –
12 | CC(C)C[C@H](NC(=O)[C@H](CC(=O)O)NC(=O)CNC(=O)[C@H](CCCNC(=N)N)NC(=O)[C@@H](NC(=O)[C@H](Cc1ccccc1)NC(=O)[C@H](Cc1ccc(O)cc1)NC(=O)[C@@H]1CCC(=O)NCC(=O)NCC(=O)N[C@@H](C)C(=O)NCC(=O)N[C@@H](Cc2c[nH]cn2)C(=O)N[C@@H](C(C)C)C(=O)N2CCC[C@H]2C(=O)N1)C(C)C)C(=O)N[C@@H](CCC(=O)O)C(=O)N[C@@H](CO)C(=O)N[C@@H](Cc1ccccc1)C(=O)N[C@@H](Cc1ccc(O)cc1)C(=O)NCC(=O)O [lassotide 27] (GGAGHVPEYFVRGDLESFYG-OH; lactam N-8; C-terminus assumed) | 6.85 | – | 6.58 | – | – | – | –
13 | CC[C@H](C)[C@H](NC(=O)[C@H](CC(C)C)NC(=O)[C@H](CC(=O)O)NC(=O)CNC(=O)[C@H](CCCNC(=N)N)NC(=O)[C@@H](NC(=O)[C@H](Cc1ccccc1)NC(=O)[C@H](Cc1ccc(O)cc1)NC(=O)[C@@H]1CCC(=O)NCC(=O)NCC(=O)N[C@@H](Cc2ccccc2)C(=O)NCC(=O)N[C@@H](Cc2c[nH]cn2)C(=O)N[C@@H](C(C)C)C(=O)N2CCC[C@H]2C(=O)N1)C(C)C)C(=O)N[C@@H](CO)C(=O)N[C@@H](Cc1ccccc1)C(=O)N[C@@H](Cc1ccc(O)cc1)C(=O)NCC(=O)O [lassotide 33] (GGFGHVPEYFVRGDLISFYG-OH; lactam N-8; C-terminus assumed) | 6.46 | – | 6.90 | – | – | – | –

From doi:10.1101/2025.01.28.635346v1 (bioRxiv, 2025)
